According to patent US11135163B2, “Peptide hydrogel properties and its applications” (Kansas State University Research Foundation, priority 2014, dated 2021):
Where two headings read alike, the source gives them in different places.

Columns and labels:
[1] = Rheology of h9e/HSA hydrogel formation; format: physicochemical
Description: For albumin triggered hydrogel formation, 10 mM (1.74 wt %) peptide was first dissolved in 100 mM NaHCO3 solution. BSA and HSA were dissolved in water with 5 wt % concentration. The peptide solution and albumin solution were then mixed at different ratios for final mixtures of 1, 2, 3 mM h9e peptide with albumin from 0.1 to 5 wt %.
The storage (G′) and loss (G″) moduli of h9e hydrogels with different peptide/albumin ratios were measured on a rheometer system C-VOR 150 (Malvern instruments, Malvern, Worcestershire WR141XZ, United Kingdom) with a 20 mm diameter parallel plate test system. All rheological tests were carried out at 37° C. To determine the hydrogel forming rate, the peptide and albumin mixture was placed on the measuring system immediately after preparation and tested by a single frequency (1 Hz) method with steady shear strain (1%) for 1 hour

[2] = h9e-MSC medium hydrogel rheology; format: physicochemical
Description: (§1) Two different types of stem cell mediums were selected for this test. One is a low glucose DMEM medium with 2% (v/v) Fetal Bovine Serum (FBS) for Mesenchymal Stromal Cell (MSC medium). The other one is a N2B27 supplemented serum-free 2i medium with 0.5% (v/v) Bovine Serum Albumin (BSA) for rat Embryonic Stem Cell (ESC, 2i medium). The hydrogel formation process was monitored under a time sweep rheological test for 1 hour. The special shear-thinning and self-healing property of h9e peptide hydrogel was also tested. […] In addition, the stability of hydrogel as well as the peptide solution before the hydrogel formation was also tested.
(§2) The h9e peptide was synthesized according to the method mentioned above. Lyophilized peptide was added to 100 mM sodium bicarbonate and completely dissolved by magnetic stirring for 3 hours with a final peptide concentration of 10 mM. For hydrogelation, peptide solution was added into MSC medium or 2i medium and the mixture was hand-shaken for about 10 seconds or gently pipette mixed 3 times. The final peptide concentrations were 1, 2, and 3 mM.
(§3) The storage and loss moduli (G′ and G″, respectively) of h9e hydrogels were determined on a C-VOR 150 rheometer system (Malvern instruments, Malvern, Worcestershire WR141XZ, United Kingdom) with a 20-mm diameter parallel plate geometry and 500 μm gap size at 37° C. The methods for hydrogel formation test and shear-thinning and self-healing test were the same as the methods of cancer cell medium mentioned above. After 24 hours of hydrogel formation, 2 mM peptide hydrogel was diluted 20 fold by adding cell culture medium and thorough mixing by pipette. The diluted solution was transferred to rheometer system and tested under 1 Hz frequency and 1% shear strain at 4° C. for 1 hour.

[3] = h9e-2i medium hydrogel rheology and stability; format: physicochemical
Description: as §1, §2, §3
The stability of h9e-2i medium hydrogel was tested. A plastic tray was placed on the bottom of the well plate. Next, 1 wt % h9e solution was mixed with 2i medium at 1:1 (v:v) ratio in a centrifuge tube and then transferred into the well plate. There was 500 μl peptide hydrogel for each well. The well plate was then placed in an incubator for 1 hour. After hydrogel was stable, another 500 μl of 2i medium was slowly added on the top of hydrogel. The top medium was replaced every other day. For mechanical testing, the top 2i medium was removed and hydrogel was transferred to a dynamic rheometer using the tray. The stability of the peptide solution was also tested using 1 wt % peptide solution stored in 4° C. refrigerator for up to 24 days. Part of the peptide solution was taken out and mixed with 2i medium with 1:1 (v:v) ratio on days 1, 6, 18 and 24. The hydrogel formation process was monitored under the single frequency (1 Hz) rheological test with 1% shear strain for 1 hour.

[4] = Instantaneous gelation time sweep of peptide sequences 1, 3 and 4; format: physicochemical; conditions: triggered with 100 mM CaCl2 solution (FIG. 12, 13)
Description: Similar to the methods used in U.S. 2013/0018004. Hydrogels were prepared with peptide 1, 3, and 4 alone, or mixture of peptide sequence 1 and 4 at 1:1 ratio. Hydrogels were triggered by calcium ions and BSA alone or co-trigger (calcium ions+BSA).

female mice of FVB = experiment: Immune response after subcutaneous injection of hydrogel in mice; format: in vivo, mouse
Description: Hydrogel: 1% h9e peptide was prepared in sodium bicarbonate solution, and 1% BSA was prepared in PBS solution as trigger solution. The h9e peptide solution and BSA solution was mixed at 1:1 volume ratio, and incubated at 37° C. for 30 min to prepare hydrogel with 0.5% h9e peptide concentration and 0.5% BSA with a gel strength of about 450 Pa.
Experiment: In trials #1 and #2, healthy female mice of FVB 6-15 week old were injected subcutaneously in the inguinal region with 100 or 200 uL of the hydrogel or control solutions in a blinded study. Weight and external body temperature were measured daily for up to 2 weeks.
Mammary fat pads from the inguinal region were removed at necropsy. Tissues were fixed with 10% formalin and processing for a 5 um thickness sectioning. Samples were stained with hematoxylin and eosin (H&E). Hydrogel trial 3 was completed in the same manner described above with the following exceptions. 200 uL of hydrogel or control solutions were injected subcutaneously on the back of the animal.
Microscope slide preparation: Samples of the control, and hydrogel treated tissues were submitted for histopath processing at Diagnostic Laboratory at KSU Veterinary School in Mosier Hall. Slides and paraffin blocks were labeled 1 as control and 4 as hydrogel treated, respectively. Adipose tissue samples were processed on the Sakua Tissue-Tek VIP 6, model #VIP6-A1. Then, the samples were then embedded using the Sakura Tissue-Tek Tissue Embedding Console System model #4710. For microscope slide preparation, the paraffin blocks were cut on a 1215 Leitz Rotary Microtome and sectioned at 5 microns. Sections were then mounted on a microscope slide from a water bath. H&E staining of the slides done on an automated stainer, Leica Autostainer XL, model #ST5060. Lastly, the stained slides are covered slipped by an automatic coverslippper, Leica CV5030.
Inflammatory analysis: The fixed tissues of animals without treatment, treated with PBS buffer and h9e hydrogel were further analyzed for inflammatory effects including VWF8 (blood vessel), Arginase I (wound healing macrophage), Fspl and α-smooth muscle actin (fibroblast), CCL2 (pro-inflammatory cytokine), and TGF-beta (immunosuppressive cytokine). 796 (FVB normal mammary gland) was used as negative control. Image J arbitrary unit was used to evaluate these tests using Image J software.

[5] = Comparison of material properties of 3D cell culture hydrogels; format: physicochemical
[6] = Hydrogelation and dynamic rheology of h9e in MEM; format: physicochemical; conditions: MEM without serum

H-FLIVIGSIIGPGGDGPGGD-NH2 [h9e, FLIVIGSIIGPGGDGPGGD]
hydrogel formation ([1]; 3 mM h9e peptide mixed with 5 wt % HSA): hydrogel was formed | hydrogel formation ([1]; peptide concentration 1 mM or HSA concentration 0.5 wt %): Hydrogel did not form | stable G′ ([2]; 1 mM h9e-MSC hydrogel): 70 Pa | G′ under 500% shear strain ([2]; 2 mM h9e-MSC hydrogel): lower than 0.2 Pa | stable G′ ([2]; 2 mM h9e-MSC hydrogel): 350 Pa | gel strength recovered ([2]; 2 mM h9e-MSC hydrogel, 1 min after shear ceased): greater than 90% | mechanical strength recovered ([2]; 2 mM h9e-MSC hydrogel, within a few minutes of 1% shear strain recovery test): 100% | stable G′ ([2]; 3 mM h9e-MSC hydrogel): 800 Pa | G′ and G″ after 20-fold dilution ([2]; diluted from 2 mM to 0.1 mM, 1 hour test): lower than 4 Pa | stability of h9e solution [3]: exceed 2 months | G′ ([3]; 1 mM h9e-2i hydrogel): about 100 Pa | G′ after shearing into liquid state ([3]; 2 mM h9e-2i hydrogel): < 0.2 Pa | stable G′ ([3]; 2 mM h9e-2i hydrogel): 600 Pa | mechanical strength restored ([3]; 2 mM h9e-2i hydrogel, within a few minutes of recovery test): 100% | stable G′ ([3]; 3 mM h9e-2i hydrogel): 600 Pa | G′ of h9e-2i hydrogel during 7 days (stability) ([3]; 1 wt % h9e solution mixed 1:1 with 2i medium): 130-160 Pa | stability of h9e solution ([3]; stored at 4° C. for 24 days, then mixed with 2i medium): could still form a hydrogel | final gel strength after 30 minute gelation time sweep [4]: 240 Pa | inflammatory effects compared to controls (female mice of FVB; 0.5% h9e/0.5% BSA hydrogel, subcutaneous, mice): No significant inflammatory effects | histological images, hydrogel treated versus control (female mice of FVB; H&E staining): no significant difference | absorption of hydrogel at necropsy (female mice of FVB; trial 3, 200 uL subcutaneously on the back): complete absorption of hydrogel | daily activity of treated animals (female mice of FVB; up to 2 weeks): same normal daily activity | Porosity [5]: 50-200 nm | solution to hydrogel transition [6]: did not stimulate this solution to hydrogel transitions effectively
